Laboratory results from patent US20060234909A1, “Compositions and methods for increasing drug efficiency” (priority 2003, published 2006).

Experiments:
[1] = system: MCF-7 breast carcinoma; test: Cytotoxicity assay (monolayer), MCF-7; type: cell-based; settings: MCF7, ML (monolayer); read-out: MCF7 (EC50 Ave) ML;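 note: cells treated 72 h with 6-8 compound doses versus DMSO vehicle controls, EC50 fitted by 4-parameter dose-response curves, averaged across all tests and lots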
[2] = system: HT-29 colorectal carcinoma; test: Cytotoxicity assay (monolayer), HT-29; type: cell-based; settings: HT29, ML (monolayer); read-out: HT29 (EC50 Ave) ML;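 note: monolayer cultures tested in triplicate, compound exposure for three days against DMSO vehicle controls, EC50 fitted from dose-response curves and averaged across all tests and lots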
[3] = system: tubulin; test: Fluorescence-based tubulin polymerization assay (MPA; enhancement for paclitaxel, inhibition for vinblastine); type: biochemical
From the text: Drug-linker constructs may further be screened using functional assays predictive of biological activity. […] Tubulin assembly or inhibition thereof may be monitored by fluorescence using the CytoDYNAMIX Screen™ 10 kit available from Cytoskeleton (1830 S. Acoma St., Denver, Colo.). […] Emission is monitored at 405 nm with excitation at 360 nm. […] Tubulin assembly or inhibition may also be monitored by light scattering which is approximated by the apparent absorption at 350 nm. For paclitaxel drug conjugates BSA is employed to prevent aggregation and glycerol, which is a tubulin polymerization enhancer, is omitted from the kit to increase the signal to noise ratio.
The assay kit (#BK011) was purchased from Cytoskeleton (Denver, Colo.). The assays were carried out according to the manufacturer's instructions, except that 1 mg/ml BSA (Sigma #A3059) was included in all assays. […] Parent drugs and conjugates were tested at 0.75, 1.5, 3 and 10 micromolar final concentration and results represent a comparison of conjugate and parent drug curves obtained from the linear range of the dose responses.
(±SD) represent the average of all tests carried out for all lots of a given compound.

[4] = system: HUVEC; test: Cytotoxicity assay (monolayer), HUVEC; type: cell-based; settings: ML (monolayer), read-out: HUVEC (EC50 Ave) ML
[5] = system: MCF-7 cells; settings: read-out: MCF7 (EC50 Ave) SA; MCF7, SA (soft agar)
[6] = system: Normal human foreskin fibroblasts (HFF); settings: read-out: HFF (EC50 Ave) ML; HFF, ML (monolayer)
[7] = system: HT-29 cells; settings: read-out: HT29 (EC50 Ave) SA; HT29, SA (soft agar)
[8] = biological target: T1, Human Src (Homo sapiens, UniProt P12931); test: Src kinase assay (PKLight ATP utilization, substrate phosphorylation as % of parent peptide); type: biochemical
T1 construct: purchased Upstate (Charlottesville, Va.) 14-326
Protocol: Another test may involve monitoring the consumption of ATP. For example, ATP concentrations at time 0 or after 4 hour incubation may be monitored by luciferase reaction (PKLight kit obtained from Cambrex Corporation, One Meadowlands Plaza, East Rutherford, N.J. 07073), which generate a luminescence readout in the presence of ATP. Assays are initiated by mixing a kinase and a peptide in the presence of 40 μM ATP. After 4 hour of incubation at 30° C., PKLight reagent is added and mixed well, and luminescence readout measured. The rate of peptide phosphorylation is then directly related to the rate of decrease in the observed luminescence. Based on the first test, linkers of appropriate lengths and peptides with an effective amount of kinase activity which may be expected to be retained in the drug conjugate may be found.
Human Src (#14-326) and Akt (#14-276) kinases were purchased from Upstate (Charlottesville, Va.). Kinase reactions were carried out in 50 μl kinase reaction cocktail (25 mM Tris-HCl, pH 7.5, 5 μM β-glycerophosphate, 2 mM DTT, 0.1 mM Na3VO4, 10 mM MgCl2, 1 mg/ml BSA, […], 0.5 to 1.0 units enzyme). Substrates (peptide or drug-peptide conjugate in […]) were added (25, 50 and 100 μM) and the reaction was incubated for 2-5 hours at 30° C. PKLight reagent (23 μl) (Cambrex BioSciences, Rockland, Me.) was mixed with […] of the above kinase reaction and ATP utilization relative to no substrate and no ATP controls was determined by measuring luminescence with a SpectraMax Gemini EM plate reader (Molecular Devices, Sunnyvale, Calif.). Peptide substrates for Src and Akt have been described. For examples, see Lou et al. Letters in Peptide Science, 2, 289-296 (1995); Lou et al. Bioorganic & Medicinal Chemistry, 4, 677-682 (1996); Alessi et al. FEBS Letters, 399, 333-338 (1996). Substrate phosphorylation potential was determined from the linear portion of the substrate concentration dose response as a percentage of the activity observed with the parent peptide used for drug conjugation.

| Molecule | EC50 [1] | EC50 [2] | Ave. MPA Act. [3] | EC50 [4] | EC50 [5] | EC50 [6] | EC50 [7] | Average src kinase activity [8] |
| --- | --- | --- | --- | --- | --- | --- | --- | --- |
| CC[C@]1(O)C[C@@H]2CN(CCc3c([nH]c4ccccc34)[C@@](C(=O)OC)(c3cc4c(cc3OC)N(C)[C@H]3[C@@](O)(C(=O)NCCCCCCCCN)[C@H](O)[C@]5(CC)C=CCN6CC[C@]43[C@@H]65)C2)C1 [VBL-3Am-ALK(8)-NH2] | < 20 nM | < 20 nM | B (B=50-80) | < 20 nM | < 20 nM | < 20 nM | < 20 nM |  |
| CC[C@]1(O)C[C@@H]2CN(CCc3c([nH]c4ccccc34)[C@@](C(=O)OC)(c3cc4c(cc3OC)N(C)[C@H]3[C@@](O)(C(=O)NCCCCCCCCCCCCN)[C@H](O)[C@]5(CC)C=CCN6CC[C@]43[C@@H]65)C2)C1 [VBL-3Am-ALK(12)-NH2] | < 20 nM | < 20 nM | B (B=50-80) | < 20 nM | < 20 nM | < 20 nM | < 20 nM |  |
| CC[C@]1(O)C[C@@H]2CN(CCc3c([nH]c4ccccc34)[C@@](C(=O)OC)(c3cc4c(cc3OC)N(C)[C@H]3[C@@](O)(C(=O)NCCCCCCCCCCCCNC(=O)OC(C)(C)C)[C@H](O)[C@]5(CC)C=CCN6CC[C@]43[C@@H]65)C2)C1 [VBL-3Am-ALK(12)-NH(B)] | 20 to 100 nM | 100 to 1000 nM | A (A<50) | < 20 nM | < 20 nM | < 20 nM | < 20 nM |  |
| CC[C@]1(O)CC2CN(CCc3c([nH]c4ccccc34)[C@@](C(=O)OC)(c3cc4c(cc3OC)N(C)[C@H]3C(O)(C(=O)NCCOCCOCCOCCN)[C@H](O)[C@]5(CC)C=CCN6CCC43[C@@H]65)C2)C1 (some centres unmarked) [VBL-3Am-PEG(11)-NH2] | 20 to 100 nM | 20 to 100 nM | B (B=50-80) | < 20 nM | < 20 nM | < 20 nM | < 20 nM |  |
| Ac-EYIYGSFR-PEG(11)-3Am-VBL (N-acetyl, PEG11, vinblastine conjugate) | > 100 nM | > 100 nM | C (C>80) | > 100 nM | > 100 nM | > 100 nM | > 100 nM | B (B=20-40) |
| Ac-EYIyGSFK-PEG(13)-10Ca-PXL (EYIYGSFK; not fully specified) | > 100 nM | > 100 nM | C (C>80) | > 100 nM | > 100 nM | > 100 nM | > 100 nM | Zero |
| Ac-YIYGSFR-PEG(11)-3Am-VBL (N-acetyl; PEG(11) linker; vinblastine conjugate) | 20 to 100 nM | 20 to 100 nM | B (B=50-80) | > 100 nM | 20 to 100 nM | > 100 nM | > 100 nM | C (C>40) |
| BOC-E(Bzl)YIFGSFK(BOC)-PEG(11)-3Am-VBL | 20 to 100 nM | > 100 nM | A (A<50) | > 100 nM | < 20 nM | > 100 nM | 20 to 100 nM | A (A<20) |
| BOC-EYIYGSFK(BOC)-PEG(11)-3Am-VBL (N-BOC; BOC side chain; PEG(11); vinblastine conjugate) | > 100 nM | > 100 nM | C (C>80) | > 100 nM | > 100 nM | > 100 nM | > 100 nM | B (B=20-40) |
